Experimental data taken from patent US9302999B2, “Substituted triazoles as herbicides” (E. I. DU PONT DE NEMOURS AND COMPANY, priority 2012, dated 2016).

Columns and labels:
Type in all cases: in vivo
[1] = test system: dayflower, (VA) (Virginia dayflower, Commelina virginica); experiment: Test E pre-/postemergence: dayflower, (VA); conditions: scale 0 to 100
Source text: Seeds of plant species selected from corn (Zea mays), soybean (Glycine max), velvetleaf (Abutilon theophrasti), lambsquarters (Chenopodium album), poinsettia, wild (wild poinsettia, Euphorbia heterophylla), pigweed, palmer (palmer pigweed, Amaranthus palmeri), waterhemp (common waterhemp, Amaranthus rudis), smartweed (ladysthumb smartweed, Polygonum persicaria), surinam grass (Brachiaria decumbens), crabgrass, large (large crabgrass, Digitaria sanguinalis), crabgrass, Brazil (Brazilian crabgrass, Digitaria horizontalis), panicum, fall (fall panicum, Panicum dichotomiflorum), foxtail, giant (giant foxtail, Setaria faberii), foxtail, green (green foxtail, Setaria viridis), goosegrass (Eleusine indica), johnsongrass (Sorghum halepense), ragweed (common ragweed, Ambrosia elation), barnyardgrass (Echinochloa crus-galli), sandbur (southern sandbur, Cenchrus echinatus), arrowleaf sida (Sida rhombifolia), ryegrass, Italian (Italian ryegrass, Lolium multiflorum), dayflower, (VA) (Virginia dayflower, Commelina virginica), field bindweed (Convolvulus arvensis), cocklebur (common cocklebur, Xanthium strumarium), morningglory (Ipomoea coccinea), nightshade (eastern black nightshade, Solanum ptycanthum), kochia (Kochia scoparia), nutsedge, yellow (yellow nutsedge, Cyperus esculentus) and beggarticks (hairy beggarticks, Bidens pilosa) were planted into a silt loam soil and treated preemergence with test chemicals formulated in a non-phytotoxic solvent mixture which included a surfactant. At the same time, plants selected from these crop and weed species were planted in pots containing a growing medium comprising spaghnum peat moss, vermiculite, wetting agent and starter nutrients and treated with postemergence applications of some of the test chemicals formulated in the same manner. Plants ranged in height from 2 to 18 cm for postemergence treatments (1- to 4-leaf stage).
(§1) Treated plants and controls were maintained in a greenhouse for 14 to 21 days, after which time all species were compared to controls and visually evaluated. Plant response ratings, summarized in Table E, are based on a scale of 0 to 100 where 0 is no effect and 100 is complete control. A dash (-) response means no test result.

[2] = test system: waterhemp_RES1 (ALS/Triazine resistant common waterhemp, Amaranthus rudis); experiment: Test F postemergence: waterhemp_RES1; conditions: scale 0 to 100
Source text: Seeds of plant species selected from corn (Zea mays), soybean (Glycine max), velvetleaf (Abutilon theophrasti), lambsquarters (Chenopodium album), poinsettia, wild (wild poinsettia, Euphorbia heterophylla), pigweed, palmer (palmer pigweed, Amaranthus palmeri), waterhemp (common waterhemp, Amaranthus rudis), surinam grass (Brachiaria decumbens), crabgrass, Brazil (Brazilian crabgrass, Digitaria horizontalis), panicum, fall (fall panicum Panicum dichotomiflorum), crabgrass, large (large crabgrass, Digitaria sanguinalis), foxtail, giant (giant foxtail, Setaria faberii), foxtail, green (green foxtail Setaria viridis), goosegrass (Eleusine indica), ragweed (common ragweed, Ambrosia elatior), barnyardgrass (Echinochloa crus-galli), sandbur (southern sandbur, Cenchrus echinatus), arrowleaf sida (Sida rhombifolia), ryegrass, Italian (Italian ryegrass, Lolium multiflorum), dayflower, VA (Virginia (VA) dayflower, Commelina virginica), field bindweed (Convolvulus arvensis), cocklebur (common cocklebur, Xanthium strumarium), morningglory (Ipomoea coccinea), nightshade (eastern black nightshade, Solanum ptycanthum), kochia (Kochia scoparia), nutsedge, yellow (yellow nutsedge, Cyperus esculentus), johnsongrass (Sorghum halepense), smartweed (ladysthumb smartweed, Polygonum persicaria), and beggarticks (hairy beggarticks, Bidens pilosa), were planted into a silt loam soil and treated preemergence with test chemicals formulated in a non-phytotoxic solvent mixture which included a surfactant. At the same time, plants selected from these crop and weed species and also pigweed (Amaranthus retroflexus), waterhemp_RES1 (ALS/Triazine resistant common waterhemp, Amaranthus rudis) and waterhemp_RES2 (ALS/HPPD resistant common waterhemp, Amaranthus rudis) were planted in pots containing a planting medium comprising spaghnum peat moss, vermiculite, wetting agent and starter nutrients treated with postemergence applications of some of the test chemicals formulated in the same manner. Plants ranged in height from 2 to 18 cm for postemergence treatments (1- to 4-leaf stage).
as §1

[3] = test system: barnyardgrass (Echinochloa crus-galli); experiment: Test C pre-/postemergence: barnyardgrass; conditions: Preemergence, 250 g ai/ha; scale 0 to 100, 0 no effect, 100 complete control
Source text: (§2) Seeds of plant species selected from blackgrass (Alopecurus myosuroides), bromegrass, downy (downy bromegrass, Bromus tectorum), foxtail, green (green foxtail, Setaria viridis), ryegrass, Italian (Italian ryegrass, Lolium multiflorum), winter wheat (Triticum aestivum), wild oat (Avena fatua), galium (catchweed bedstraw, Galium aparine), bermudagrass (Cynodon dactylon), surinam grass (Brachiaria decumbens), cocklebur (common cocklebur, Xanthium strumarium), corn (Zea mays), large crabgrass (Digitaria sanguinalis), woolly cupgrass (Eriochloa villosa), foxtail, giant (giant foxtail, Setaria faberii), goosegrass (Eleusine indica), johnsongrass (Sorghum halepense), kochia (Kochia scoparia), lambsquarters (Chenopodium album), morningglory (Ipomoea coccinea), nightshade (eastern black nightshade, Solanum ptycanthum), nutsedge, yellow (yellow nutsedge, Cyperus esculentus), pigweed (Amaranthus retroflexus), ragweed (common ragweed, Ambrosia elation), soybean (Glycine max), common (oilseed) sunflower (Helianthus annuus), Russian thistle (Salsola kali) and velvetleaf (Abutilon theophrasti) were planted into a blend of loam soil and sand and treated preemergence with test chemicals formulated in a non-phytotoxic solvent mixture which included a surfactant.
At the same time, plants selected from these crop and weed species and also barley (winter barley, Hordeum vulgare), canarygrass (Phalaris minor), chickweed (common chickweed, Stellaria media) windgrass (Apera spica-venti) and deadnettle (henbit deadnettle, Lamium amplexicaule) were planted in pots containing Redi-Earth® planting medium (Scotts Company, 14111 Scottslawn Road, Marysville, Ohio 43041) comprising spaghnum peat moss, vermiculite, wetting agent and starter nutrients and treated with postemergence applications of test chemicals formulated in the same manner. Plants ranged in height from 2 to 18 cm (1- to 4-leaf stage) for postemergence treatments.
(§3) Treated plants and controls were maintained in a greenhouse for 13 to 15 days, after which time all species were compared to controls and visually evaluated. Plant response ratings, summarized in Table C, are based on a scale of 0 to 100 where 0 is no effect and 100 is complete control. A dash (-) response means no test result.

Oilseed Rape = experiment: Test C preemergence: oilseed rape; conditions: scale of 0 to 100, 0 is no effect, 100 is complete control
Source text: as §2, §3

Q: How did the “Plant response rating: Dayflower, VA” value ([1]; Preemergence, 8 g ai/ha) turn out when `Cc1nn(-c2ccc(F)cc2)nc1Cc1ccnc(C(F)(F)F)c1` [Compound 16, 4-[[2-(4-fluorophenyl)-5-methyl-2H-1,2,3-triazol-4-yl]methyl]-2-(trifluoromethyl)pyridine] was run?
A: 0

Q: And the “Plant response rating: Dayflower, VA” value ([1]; Preemergence, 16 g ai/ha)?
A: 0

Q: And the “Plant response rating: Dayflower, VA” value ([1]; Preemergence, 31 g ai/ha)?
A: 35

Q: What about the “Plant response rating: Dayflower, VA” value ([1]; Preemergence, 62 g ai/ha) of the same compound?
A: 50

Q: What about the “Plant response rating: Dayflower, VA” value ([1]; Preemergence, 125 g ai/ha) of the same compound?
A: 85

Q: Which “Plant response rating: Dayflower, VA” value ([1]; Postemergence, 250 g ai/ha) does the source give for `Cc1nn(-c2ccc(C(F)(F)F)cc2)nc1Cc1ccnc(C(F)(F)F)c1` [Compound 47, 4-[[5-methyl-2-[4-(trifluoromethyl)phenyl]-2H-1,2,3-triazol-4-yl]methyl]-2-(trifluoromethyl)pyridine] here?
A: 30

Q: And the “Plant response rating: Dayflower, VA” value ([1]; Postemergence, 16 g ai/ha)?
A: 10

Q: And the “Plant response rating: Dayflower, VA” value ([1]; Postemergence, 31 g ai/ha)?
A: 10

Q: What about the “Plant response rating: Dayflower, VA” value ([1]; Postemergence, 62 g ai/ha) of the same compound?
A: 20

Q: What about the “Plant response rating: Dayflower, VA” value ([1]; Postemergence, 125 g ai/ha) of the same compound?
A: 25

Q: `Cc1nn(-c2ccc(F)c(F)c2)nc1Oc1ccnc(C(F)(F)F)c1` [Compound 145] was tested. Which “Plant response rating, Waterhemp, Res1” value ([2]; 125 g ai/ha) did it give?
A: 90

Q: Which “Plant response rating, Barnyardgrass” value [3] does the source give for `CCCc1nn(-c2ccc(F)cc2)nc1Cc1ccnc(C(F)(F)F)c1` [Compound 153] here?
A: 100

Q: And the “Plant response rating, Oilseed Rape” value (Oilseed Rape; 31 g ai/ha)?
A: 90

Q: What about the “Plant response rating, Oilseed Rape” value (Oilseed Rape; 62 g ai/ha) of the same compound?
A: 95

Q: What does the source list for `Cc1nn(-c2ccc(C(F)(F)F)c(F)c2)nc1Cc1ccnc(C(F)(F)F)c1` [Compound 162]?
A: Plant response rating, Barnyardgrass [3]: 100; Plant response rating, Oilseed Rape (Oilseed Rape; 31 g ai/ha): 80; Plant response rating, Oilseed Rape (Oilseed Rape; 62 g ai/ha): 100; Plant response rating, Waterhemp, Res1 ([2]; 4 g ai/ha): 70; Plant response rating, Waterhemp, Res1 ([2]; 8 g ai/ha): 90; Plant response rating, Waterhemp, Res1 ([2]; 16 g ai/ha): 90; Plant response rating, Waterhemp, Res1 ([2]; 31 g ai/ha): 95; Plant response rating, Waterhemp, Res1 ([2]; 62 g ai/ha): 95

Q: Which “Plant response rating, Barnyardgrass” value [3] does the source give for `CCc1nn(-c2ccc(F)cc2)nc1Oc1ccnc(C(F)(F)F)c1` [Compound 166] here?
A: 100

Q: And the “Plant response rating, Oilseed Rape” value (Oilseed Rape; 62 g ai/ha)?
A: 50

Q: For `CCCc1nn(-c2ccc(C(F)(F)F)c(F)c2)nc1Oc1ccnc(C(F)(F)F)c1` [Compound 185], which “Plant response rating, Barnyardgrass” value [3] is on record?
A: 100

Q: And the “Plant response rating, Oilseed Rape” value (Oilseed Rape; 62 g ai/ha)?
A: 85

Q: `CCOc1nn(-c2ccc(Br)cc2)nc1Cc1ccnc(C(F)(F)F)c1` [Compound 189] was tested. Which “Plant response rating, Oilseed Rape” value (Oilseed Rape; 62 g ai/ha) did it give?
A: 70
